Measurements as given in patent US20020137929A1, “1 - (3-heterocyclylphenyl) isothiourea, -isourea, -guanidine and -amidine herbicidal agents” (Intellectual Property Department, BASF Aktiengesellschaft, priority 1998, published 2002).

How the values were obtained:
[1] = test system: CYPIR (Rice Flatsedge); test: Postemergence weed control under flooded paddy conditions; format: in vivo, Cyperus iria; conditions: postemergence weeds, rated 3 to 4 weeks after treatment
In short: (§1)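 Weeds 3 to 5 cm tall and rice seedlings at the 1.5 to 2.5 leaf stage were flooded, with water held 1.5 to 3 cm above the soil. Compounds in 50/50 v/v aqueous/acetone went into the flood water at about 0.0313 to 0.500 kg/ha. Visual 0-9 ratings versus control were made 3 to 4 weeks later.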

[2] = test system: ECHCG (Barnyardgrass); test: Postemergence herbicidal evaluation; format: in vivo, Echinochloa crus-galli; conditions: postemergence
In short: (§2)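 ~2-wk seedlings; postemergence spray, 40 psi; vehicle 1:1 acetone:water + 0.5% Tween 20; rate ≈0.0156–0.500 kg/ha; greenhouse hold; scored 4–5 wk after treatment, 0–9 scale vs control; repeat tests averaged.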

[3] = test system: SETVI (Foxtail, Green); test: Postemergence herbicidal evaluation; format: in vivo, Setaria viridis; conditions: postemergence
In short: as §2

[4] = test system: IPOHE (Morningglory, Ivyleaf); test: Preemergence herbicidal evaluation; format: in vivo, Ipomoea hederacea; conditions: preemergence, rated 4-5 weeks after treatment, 0-9 scale
In short: (§3)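 Seeds were mixed with potting soil and planted on about one inch of soil, then sprayed with test compound in aqueous acetone at about 0.0156 to 0.500 kg per hectare. Plants grew under standard greenhouse care and were visually rated 0-9 against untreated controls 4-5 weeks post-treatment.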

[5] = test system: ZEAMX (Corn, Field); test: Postemergence herbicidal evaluation; format: in vivo, Zea mays; conditions: postemergence
In short: as §2

[6] = test system: CHEAL (Lambsquarters, Common); test: Postemergence herbicidal evaluation; format: in vivo, Chenopodium album; conditions: postemergence
In short: as §2

[7] = test system: CASOB (Sicklepod); test: Preemergence herbicidal evaluation; format: in vivo, Cassia obtusifolia; conditions: preemergence, rated 4-5 weeks after treatment, 0-9 scale
In short: as §3

[8] = test system: ZEAMX (Corn, Field); test: Preemergence herbicidal evaluation; format: in vivo, Zea mays; conditions: preemergence, rated 4-5 weeks after treatment, 0-9 scale
In short: as §3

[9] = test system: GLXMAW (Soybean, Williams); test: Preemergence herbicidal evaluation; format: in vivo, Glycine max, (L.) Merr. cv Williams; conditions: preemergence, rated 4-5 weeks after treatment, 0-9 scale
In short: as §3

[10] = test system: CHEAL (Lambsquarters, Common); test: Preemergence herbicidal evaluation; format: in vivo, Chenopodium album; conditions: preemergence, rated 4-5 weeks after treatment, 0-9 scale
In short: as §3

[11] = test system: IPOHE (Morningglory, Ivyleaf); test: Postemergence herbicidal evaluation; format: in vivo, Ipomoea hederacea; conditions: postemergence
In short: as §2

[12] = test system: TRZAWR (Wheat, Winter, cv Riband); test: Preemergence herbicidal evaluation; format: in vivo, Triticum aestivum; conditions: preemergence, rated 4-5 weeks after treatment, 0-9 scale
In short: as §3

[13] = test system: CYPSE (Flatsedge); test: Postemergence weed control under flooded paddy conditions; format: in vivo, Cyperus serotinus; conditions: postemergence weeds, rated 3 to 4 weeks after treatment
In short: as §1

[14] = test system: ORYSAT (Rice, Tebonnet); test: Postemergence herbicidal evaluation; format: in vivo, Oryza sativa, (L.) Tebonnet; conditions: postemergence
In short: as §2

[15] = test system: ABUTH (Velvetleaf); test: Postemergence herbicidal evaluation; format: in vivo, Abutilon theophrasti; conditions: postemergence
In short: as §2

[16] = test system: ECHCG (Barnyardgrass); test: Preemergence herbicidal evaluation; format: in vivo, Echinochloa crus-galli; conditions: preemergence, rated 4-5 weeks after treatment, 0-9 scale
In short: as §3

[17] = test system: ABUTH (Velvetleaf); test: Preemergence herbicidal evaluation; format: in vivo, Abutilon theophrasti; conditions: preemergence, rated 4-5 weeks after treatment, 0-9 scale
In short: as §3

CCOC(=O)CN1C(=O)C(CC(=O)NS(=O)(=O)CC)SC1=Nc1cc(-n2c(=O)cc(C(F)(F)F)n(C)c2=O)c(F)cc1Cl (stereo not shown) [Compound 103, Ethyl 2-{{2-chloro-5-[3,6-dihydro-3-methyl-2,6-dioxo-4-(trifluoromethyl)-1(2H)-pyrimidinyl]-4-fluorophenyl}imino}-5-{[(ethylsulfonyl)carbamoyl]-methyl}-4-oxo-3-thiazolidineacetate]
1.0: ZEAMX rating ([8]; 0.5000 kg/ha) | TRZAWR rating ([12]; 0.5000 kg/ha)
4.0: Herbicidal rating CYPIR ([1]; Rate 0.0313 kg/ha) | herbicidal rating SETVI ([3]; rate 0.0156 kg/ha) | CHEAL rating ([10]; 0.0625 kg/ha)
2.0: herbicidal rating ORYSAT ([14]; rate 0.0313 kg/ha) | ECHCG rating ([16]; 0.5000 kg/ha)
3.5: herbicidal rating ORYSAT ([14]; rate 0.1250 kg/ha)
6.0: Herbicidal rating CYPIR ([1]; Rate 0.0625 kg/ha) | Herbicidal rating CYPSE ([13]; Rate 0.1250 kg/ha) | Herbicidal rating CYPSE ([13]; Rate 0.2500 kg/ha)
7.5: herbicidal rating ZEAMX ([5]; rate 0.0313 kg/ha)
2.5: herbicidal rating ORYSAT ([14]; rate 0.0625 kg/ha)
5.5: herbicidal rating ZEAMX ([5]; rate 0.0156 kg/ha)
0.0: IPOHE rating ([4]; 0.0313 kg/ha) | IPOHE rating ([4]; 0.0625 kg/ha) | CASOB rating ([7]; 0.0313 kg/ha) | CASOB rating ([7]; 0.0625 kg/ha) | CASOB rating ([7]; 0.1250 kg/ha) | ZEAMX rating ([8]; 0.0313 kg/ha) | ZEAMX rating ([8]; 0.0625 kg/ha) | ZEAMX rating ([8]; 0.1250 kg/ha) | ZEAMX rating ([8]; 0.2500 kg/ha) | GLXMAW rating ([9]; 0.0313 kg/ha) | GLXMAW rating ([9]; 0.0625 kg/ha) | GLXMAW rating ([9]; 0.1250 kg/ha) | GLXMAW rating ([9]; 0.2500 kg/ha) | CHEAL rating ([10]; 0.0313 kg/ha) | TRZAWR rating ([12]; 0.0313 kg/ha) | TRZAWR rating ([12]; 0.0625 kg/ha) | TRZAWR rating ([12]; 0.1250 kg/ha) | TRZAWR rating ([12]; 0.2500 kg/ha) | ECHCG rating ([16]; 0.0313 kg/ha) | ECHCG rating ([16]; 0.0625 kg/ha) | ECHCG rating ([16]; 0.1250 kg/ha) | ECHCG rating ([16]; 0.2500 kg/ha)
9.0: Herbicidal rating CYPIR ([1]; Rate 0.1250 kg/ha) | Herbicidal rating CYPIR ([1]; Rate 0.2500 kg/ha) | herbicidal rating ECHCG ([2]; rate 0.0313 kg/ha) | herbicidal rating ECHCG ([2]; rate 0.0625 kg/ha) | herbicidal rating ECHCG ([2]; rate 0.1250 kg/ha) | herbicidal rating SETVI ([3]; rate 0.0625 kg/ha) | herbicidal rating SETVI ([3]; rate 0.1250 kg/ha) | IPOHE rating ([4]; 0.5000 kg/ha) | herbicidal rating CHEAL ([6]; rate 0.1250 kg/ha) | CHEAL rating ([10]; 0.1250 kg/ha) | CHEAL rating ([10]; 0.2500 kg/ha) | CHEAL rating ([10]; 0.5000 kg/ha) | herbicidal rating IPOHE ([11]; rate 0.0156 kg/ha) | herbicidal rating IPOHE ([11]; rate 0.0313 kg/ha) | herbicidal rating IPOHE ([11]; rate 0.0625 kg/ha) | herbicidal rating IPOHE ([11]; rate 0.1250 kg/ha) | herbicidal rating ABUTH ([15]; rate 0.0156 kg/ha) | herbicidal rating ABUTH ([15]; rate 0.0313 kg/ha) | herbicidal rating ABUTH ([15]; rate 0.0625 kg/ha) | herbicidal rating ABUTH ([15]; rate 0.1250 kg/ha) | ABUTH rating ([17]; 0.0313 kg/ha) | ABUTH rating ([17]; 0.0625 kg/ha) | ABUTH rating ([17]; 0.1250 kg/ha) | ABUTH rating ([17]; 0.2500 kg/ha) | ABUTH rating ([17]; 0.5000 kg/ha)
8.5: herbicidal rating ZEAMX ([5]; rate 0.0625 kg/ha) | herbicidal rating ZEAMX ([5]; rate 0.1250 kg/ha)
1.5: herbicidal rating ORYSAT ([14]; rate 0.0156 kg/ha)
3.0: herbicidal rating ECHCG ([2]; rate 0.0156 kg/ha) | IPOHE rating ([4]; 0.1250 kg/ha) | herbicidal rating CHEAL ([6]; rate 0.0156 kg/ha) | herbicidal rating CHEAL ([6]; rate 0.0313 kg/ha) | CASOB rating ([7]; 0.2500 kg/ha) | CASOB rating ([7]; 0.5000 kg/ha) | GLXMAW rating ([9]; 0.5000 kg/ha)
5.0: herbicidal rating SETVI ([3]; rate 0.0313 kg/ha) | IPOHE rating ([4]; 0.2500 kg/ha) | herbicidal rating CHEAL ([6]; rate 0.0625 kg/ha) | Herbicidal rating CYPSE ([13]; Rate 0.0313 kg/ha) | Herbicidal rating CYPSE ([13]; Rate 0.0625 kg/ha)
